Reference: US4252788A, “Dental composition for preventing and inhibiting dental caries” (Toyo Seiyaku Kasei Co., Ltd., priority 1979, dated 1981)

Columns and labels:
[1] = Ability to inhibit decalcification of the hard tissue (dissolved calcium from human dentin powder in acid solution)
Description: The ability to inhibit decalcification of the hard tissue was estimated according to the method described in Nishino. Osaka University Shigaku Zasshi, Vol. 14, page 1 (1969). That is, firstly, a certain amount of human dentin powder was treated with a composition (aqueous solution of a molybdate compound) to be tested for certain minutes and then unbonded excess components were removed by washing with water to obtain a sample powder. Then, the sample powder was treated with an acid solution (decalcification) and the amount of calcium in the solution, which was dissolved in the solution by action of the acid, was determined (sample calcium content). Similarly, untreated dentin powder was added to an acid solution and the amount of calcium in the acid solution was determined (control calcium content). From these values, a inhibition rate of decalcification was calculated as follows: [formula]

[2] = In vivo inhibition of dental caries in rats on cariogenic diet inoculated with Streptococcus mutans; parameters: species or system Male Sprague-Dawley rats; details: for Average caries score (± S.E.), Dm (moderate dental caries) / Average caries score (± S.E.), Ds (slight dental caries) / Average caries score (± S.E.), Dx (extensive dental caries) / Inhibition rate of dental caries, Dm (moderate dental caries) / Inhibition rate of dental caries, Ds (slight dental caries) / Inhibition rate of dental caries, Dx (extensive dental caries): 8 weeks
Description: Further, the ability of the composition of the present invention to inhibit dental caries was tested in vivo as follows:
45 Male Sprague-Dawley rats (18 days old) were divided into three groups (15 rats/group). These rats were kept with the following cariogenic diet and deionized water during the test period (8 weeks).
0.2 ml of a culture broth, which was prepared by anaerobic cultivation of Streptococcus mutans in brain-heart-infusion broth at 37° C. for 24 hours, was orally administered to each rat once a day for 5 days. On the first, 7th, 14th, 21st, 28th and 35th days of the test period, 10% solution of (NH4)2 MoO2 F4 in deionized water (pH 7.5) was applied twice to mandibular molar of each rat of the first group with a cotton applicator and dried for 5 minutes. Likewise, 2% solution of NaF in deionized water (pH 3.6) was applied to each rat of the second group. As a control, mere deionized water was also applied to each rat of the third group. After 8 weeks, rats were sacrificed and mandibula of each rat was isolated and autoclaved at 121° C. for 5 minutes to remove gingiva and the like attached thereto. After drying, the severity of dental caries of each isolated mandibular molar was estimated with a caries score according to the method described in P. H. Keyes, J. Dent. Res., […], 1088-1099 (1958). In Tables 3 and 4, symbols of the severity of dental caries mean as follows:
Dm: moderate dental caries (dental caries extends to a quarter to three quarters part between enamel and dental pulp); and
Dx: extensive dental caries (dental caries extends to more than three quarters part between enamel and dental pulp).
The inhibition rate of dental caries is calculated as follows: [formula]

mice = test: LD50 in mice; type: in vivo
Source text: Further, the dental composition of the present invention is useful from a viewpoint of toxicity since the molybdate compounds used in the present invention have toxicity as low as that of other medicaments commonly used for inhibition of dental caries.

[3] = tested on: protease (collagenase or trypsin); test: Ability to inhibit digestion of the soft tissue (human decalcified dentin powder in opaque agar plate, clear zone with protease); type: biochemical; details: sodium fluoride
Description: The ability to inhibit digestion of the soft tissue was estimated according to the method described in Yanagida et al, Shonishikagaku Zasshi, Vol. 9, page 39 (1971). That is, various molybdate compounds (Na2 MoO2 F4, K2 MoO2 F4, (NH4)2 MoO2 F4, Na2 MoO4 or K2 MoO4) were dissolved in deionized water in various concentrations to obtain various compositions to be tested. A certain amount of human decalcified dentin powder was treated with each of the above prepared compositions for certain minutes and then unbonded excess components were removed by dialysis to obtain a sample powder. Then, an opaque agar plate was prepared from a mixture of agar and the sample powder, and a protease (collagenase or trypsin) was added to the plate. The inhibiting ability was estimated by observing whether a clear zone was formed on the plate or not (the clear zone is formed by dissolution of the powder with the enzyme, and the formation thereof means digestion of the soft tissue).

[4] = 0.5 hr decalcification, Mo 1%, pH 3
[5] = 0.5 hr decalcification, Mo 1%, pH 5
[6] = 1 hr decalcification, Mo 1%, pH 3
[7] = 1 hr decalcification, Mo 1%, pH 5
[8] = 3 hrs decalcification, Mo 1%, pH 3
[9] = 3 hrs decalcification, Mo 1%, pH 5
[10] = 5 hrs decalcification, Mo 1%, pH 3
[11] = 5 hrs decalcification, Mo 1%, pH 5
[12] = 1st group, 10% solution, pH 7.5
[13] = 0.5 hr decalcification, Mo 4%, pH 7
[14] = 1 hr decalcification, Mo 4%, pH 7
[15] = 3 hrs decalcification, Mo 4%, pH 7
[16] = 5 hrs decalcification, Mo 4%, pH 7

[NH4+].[NH4+].[O]=[Mo-2](=[O])([F])([F])([F])[F] [(NH4)2 MoO2 F4, ammonium dioxotetrafluoromolybdate]
Inhibition rate of decalcification [1, 4]: 44.43%
Inhibition rate of decalcification [1, 5]: 44.43%
Inhibition rate of decalcification [1, 6]: 34.60%
Inhibition rate of decalcification [1, 7]: 45.45%
Inhibition rate of decalcification [1, 8]: 36.47%
Inhibition rate of decalcification [1, 9]: 42.39%
Inhibition rate of decalcification [1, 10]: 37.27%
Inhibition rate of decalcification [1, 11]: 43.12%
Average caries score (± S.E.), Dm (moderate dental caries) [2, 12]: 0.7 ± 0.2
Average caries score (± S.E.), Ds (slight dental caries) [2, 12]: 3.9 ± 0.6
Average caries score (± S.E.), Dx (extensive dental caries) [2, 12]: 0.2 ± 0.2
Inhibition rate of dental caries, Dm (moderate dental caries) [2, 12]: 82.9%
Inhibition rate of dental caries, Ds (slight dental caries) [2, 12]: 54.7%
Inhibition rate of dental caries, Dx (extensive dental caries) [2, 12]: 93.8%
Dental caries inhibitory effect (in words) ([2]; Tables 3 and 4): excellent dental caries inhibitory effect
Inhibition rate of dental caries compared with NaF (in words) ([2]; at any severity): extremely superior to that of the composition containing NaF
Inhibition of moderate and extensive dental caries (in words) ([2]; scores of Dm and Dx in Table 3): moderate and extensive dental caries are almost inhibited
LD50 (p.o.) (mice): 124 mg/kg

[K+].[K+].[O]=[Mo](=[O])([O-])[O-] [K2 MoO4, potassium orthomolybdate]
Inhibition rate of decalcification ([1]; 0.5 hr decalcification, Mo 4%, pH 3): 30.80%
Inhibition rate of decalcification [1, 13]: 36.30%
Inhibition rate of decalcification ([1]; 1 hr decalcification, Mo 4%, pH 3): 33.33%
Inhibition rate of decalcification [1, 14]: 38.64%
Inhibition rate of decalcification ([1]; 3 hrs decalcification, Mo 4%, pH 3): 35.42%
Inhibition rate of decalcification [1, 15]: 43.55%
Inhibition rate of decalcification ([1]; 5 hrs decalcification, Mo 4%, pH 3): 34.52%
Inhibition rate of decalcification [1, 16]: 36.24%

[Na+].[Na+].[O]=[Mo-2](=[O])([F])([F])([F])[F] [Na2 MoO2 F4, sodium dioxotetrafluoromolybdate]
Inhibition rate of decalcification [1, 4]: 63.30%
Inhibition rate of decalcification [1, 5]: 62.39%
Inhibition rate of decalcification [1, 6]: 64.65%
Inhibition rate of decalcification [1, 7]: 50.51%
Inhibition rate of decalcification [1, 8]: 66.67%
Inhibition rate of decalcification [1, 9]: 49.59%
Inhibition rate of decalcification [1, 10]: 66.28%
Inhibition rate of decalcification [1, 11]: 49.43%

[Na+].[Na+].[O]=[Mo](=[O])([O-])[O-] [Na2 MoO4, sodium orthomolybdate]
Inhibition rate of decalcification ([1]; 0.5 hr decalcification, Mo 4%, pH 5): 45.61%
Inhibition rate of decalcification [1, 13]: 44.04%
Inhibition rate of decalcification ([1]; 1 hr decalcification, Mo 4%, pH 5): 47.60%
Inhibition rate of decalcification [1, 14]: 42.17%
Inhibition rate of decalcification ([1]; 3 hrs decalcification, Mo 4%, pH 5): 49.25%
Inhibition rate of decalcification [1, 15]: 33.80%
Inhibition rate of decalcification ([1]; 5 hrs decalcification, Mo 4%, pH 5): 47.82%
Inhibition rate of decalcification [1, 16]: 35.42%

O=P([O-])([O-])[O-].[Na+].[Na+].[Na+].[O]=[Mo](=[O])=[O].[O]=[Mo](=[O])=[O].[O]=[Mo](=[O])=[O].[O]=[Mo](=[O])=[O].[O]=[Mo](=[O])=[O].[O]=[Mo](=[O])=[O].[O]=[Mo](=[O])=[O].[O]=[Mo](=[O])=[O].[O]=[Mo](=[O])=[O].[O]=[Mo](=[O])=[O].[O]=[Mo](=[O])=[O].[O]=[Mo](=[O])=[O] [Na3 PO4 . 12MoO3, sodium phosphorus molybdate]
Inhibition rate of decalcification [1, 4]: 42.20%
Inhibition rate of decalcification [1, 5]: 49.90%
Inhibition rate of decalcification [1, 6]: 42.42%
Inhibition rate of decalcification [1, 7]: 33.21%
Inhibition rate of decalcification [1, 8]: 41.11%
Inhibition rate of decalcification [1, 9]: 30.78%
Inhibition rate of decalcification [1, 10]: 40.94%
Inhibition rate of decalcification [1, 11]: 30.85%

[F-].[Na+] [NaF, sodium fluoride, reference compound]
Inhibition of protease digestion (in words) [3]: does not inhibit protease digestion of the soft tissue
Inhibition of protease digestion (in words) ([3]; listed as sodium fluoride): no inhibition of protease digestion
Inhibition rate of decalcification ([1]; 0.5 hr decalcification, reference NaF 2%, pH 5): 43.91%
Inhibition rate of decalcification ([1]; 0.5 hr decalcification, reference NaF 2%, pH 7): 41.94%
Inhibition rate of decalcification ([1]; 1 hr decalcification, reference NaF 2%, pH 5): 40.66%
Inhibition rate of decalcification ([1]; 1 hr decalcification, reference NaF 2%, pH 7): 36.36%
Inhibition rate of decalcification ([1]; 3 hrs decalcification, reference NaF 2%, pH 5): 47.97%
Inhibition rate of decalcification ([1]; 3 hrs decalcification, reference NaF 2%, pH 7): 36.59%
Inhibition rate of decalcification ([1]; 5 hrs decalcification, reference NaF 2%, pH 5): 38.76%
Inhibition rate of decalcification ([1]; 5 hrs decalcification, reference NaF 2%, pH 7): 36.93%
Average caries score (± S.E.), Dm (moderate dental caries) ([2]; 2nd group, 2% solution, pH 3.6): 2.3 ± 0.5
Average caries score (± S.E.), Ds (slight dental caries) ([2]; 2nd group, 2% solution, pH 3.6): 6.9 ± 0.8
Average caries score (± S.E.), Dx (extensive dental caries) ([2]; 2nd group, 2% solution, pH 3.6): 1.1 ± 0.4
Inhibition rate of dental caries, Dm (moderate dental caries) ([2]; 2nd group, 2% solution, pH 3.6): 43.9%
Inhibition rate of dental caries, Ds (slight dental caries) ([2]; 2nd group, 2% solution, pH 3.6): 19.8%
Inhibition rate of dental caries, Dx (extensive dental caries) ([2]; 2nd group, 2% solution, pH 3.6): 65.6%

O.O=P(O)(O)O.[O]=[Mo](=[O])=[O].[O]=[Mo](=[O])=[O].[O]=[Mo](=[O])=[O].[O]=[Mo](=[O])=[O].[O]=[Mo](=[O])=[O].[O]=[Mo](=[O])=[O].[O]=[Mo](=[O])=[O].[O]=[Mo](=[O])=[O].[O]=[Mo](=[O])=[O].[O]=[Mo](=[O])=[O].[O]=[Mo](=[O])=[O].[O]=[Mo](=[O])=[O] [P2 O5 . 24MoO3, phosphomolybdic acid]
Inhibition rate of decalcification [1, 4]: 58.32%
Inhibition rate of decalcification [1, 13]: 45.22%
Inhibition rate of decalcification [1, 6]: 52.02%
Inhibition rate of decalcification [1, 14]: 44.82%
Inhibition rate of decalcification [1, 8]: 54.24%
Inhibition rate of decalcification [1, 15]: 47.39%
Inhibition rate of decalcification [1, 10]: 43.12%
Inhibition rate of decalcification [1, 16]: 44.61%
